In PMC5218480 (PLoS ONE, 2017):

Test system: MV-4-11 cells
Assay: Gene expression microarray analysis (Affymetrix PrimeView) and GSEA
Assay type: cell-based, human
Set-up: RFU PODN (11730768_x_at) / Fold change /veh PODN (11730768_x_at) / RFU LINC00158 (11744669_a_at) / Fold change /veh LINC00158 (11744669_a_at) / RFU DUSP10 (11751237_a_at) / Fold change /veh DUSP10 (11751237_a_at) / RFU ID3 (11757404_x_at) / Fold change /veh ID3 (11757404_x_at) / RFU PLEKHG5 (11737974_s_at) / Fold change /veh PLEKHG5 (11737974_s_at) / RFU LRRC4B (11730491_at) / Fold change /veh LRRC4B (11730491_at) / RFU GIMAP4 (11747438_a_at) / Fold change /veh GIMAP4 (11747438_a_at) / RFU KRT8 (11758183_x_at) / Fold change /veh KRT8 (11758183_x_at) / RFU CNN1 (11734310_a_at) / Fold change /veh CNN1 (11734310_a_at) / RFU VPS37D (11726825_at) / Fold change /veh VPS37D (11726825_at) / RFU C10orf10 (11716522_x_at) / Fold change /veh C10orf10 (11716522_x_at) / RFU KIR2DL2 /// KIR2DL4 /// KIR2DL5A /// KIR2DL5B /// KIR2DS1 /// KIR2DS2 /// KIR2DS3 /// KIR2DS4 /// KIR3DL3 /// KIR3DL3 /// KIR3DS1 (11738374_at) / Fold change /veh KIR2DL2 /// KIR2DL4 /// KIR2DL5A /// KIR2DL5B /// KIR2DS1 /// KIR2DS2 /// KIR2DS3 /// KIR2DS4 /// KIR3DL3 /// KIR3DL3 /// KIR3DS1 (11738374_at) / RFU C1QL1 (11718748_at) / Fold change /veh C1QL1 (11718748_at) / RFU TMPRSS4 (11747572_a_at) / Fold change /veh TMPRSS4 (11747572_a_at) / RFU HAMP (11756126_x_at) / Fold change /veh HAMP (11756126_x_at) / RFU RNFT2 (11725882_a_at) / Fold change /veh RNFT2 (11725882_a_at) / RFU NR4A2 (11747474_a_at) / Fold change /veh NR4A2 (11747474_a_at) / RFU ABCC12 (11746883_a_at) / Fold change /veh ABCC12 (11746883_a_at) / RFU TMEM136 (11760407_x_at) / Fold change /veh TMEM136 (11760407_x_at) / RFU CLDN22 /// WWC2 (11732394_at) / Fold change /veh CLDN22 /// WWC2 (11732394_at) / RFU HLA-DPB1 (11760878_x_at) / Fold change /veh HLA-DPB1 (11760878_x_at) / RFU SPINT1 (11716480_a_at) / Fold change /veh SPINT1 (11716480_a_at) / RFU GAP43 (11754022_s_at) / Fold change /veh GAP43 (11754022_s_at) / RFU A4GNT (11735810_at) / Fold change /veh A4GNT (11735810_at) / RFU PRB3 (11715151_x_at) / Fold change /veh PRB3 (11715151_x_at) / RFU TUBB4B (11761932_at) / Fold change /veh TUBB4B (11761932_at) / RFU CAPN14 (11732068_a_at) / Fold change /veh CAPN14 (11732068_a_at) / RFU TMCC2 (11721928_a_at) / Fold change /veh TMCC2 (11721928_a_at) / RFU IRGQ (11745062_a_at) / Fold change /veh IRGQ (11745062_a_at) / RFU FAM174B (11720279_a_at) / Fold change /veh FAM174B (11720279_a_at) / RFU TMPRSS4 (11748680_a_at) / Fold change /veh TMPRSS4 (11748680_a_at) / RFU FAM212B (11763350_a_at) / Fold change /veh FAM212B (11763350_a_at) / RFU PLEKHG5 (11743358_a_at) / Fold change /veh PLEKHG5 (11743358_a_at) / RFU ZSCAN30 (11745921_a_at) / Fold change /veh ZSCAN30 (11745921_a_at) / RFU CMKLR1 (11741424_a_at) / Fold change /veh CMKLR1 (11741424_a_at) / RFU LOC101060620 /// MAPK8IP1 (11723275_at) / Fold change /veh LOC101060620 /// MAPK8IP1 (11723275_at) / RFU SPTSSB (11747773_x_at) / Fold change /veh SPTSSB (11747773_x_at) / RFU PRSS12 (11739890_at) / Fold change /veh PRSS12 (11739890_at) / RFU BIN1 (11741810_x_at) / Fold change /veh BIN1 (11741810_x_at) / RFU WNT11 (11732464_a_at) / Fold change /veh WNT11 (11732464_a_at) / RFU C10orf10 (11716521_a_at) / Fold change /veh C10orf10 (11716521_a_at) / RFU C5orf56 (11738089_at) / Fold change /veh C5orf56 (11738089_at) / RFU CYB561 (11721691_x_at) / Fold change /veh CYB561 (11721691_x_at) / RFU ANKRD19P (11752326_a_at) / Fold change /veh ANKRD19P (11752326_a_at) / RFU OR2T12 /// OR2T33 /// OR2T8 (11738714_s_at) / Fold change /veh OR2T12 /// OR2T33 /// OR2T8 (11738714_s_at) / RFU VCAN (11748164_a_at) / Fold change /veh VCAN (11748164_a_at) / RFU JSRP1 (11732532_at) / Fold change /veh JSRP1 (11732532_at) / RFU KRTAP10-11 (11738290_x_at) / Fold change /veh KRTAP10-11 (11738290_x_at) / RFU MYO3A (11730013_a_at) / Fold change /veh MYO3A (11730013_a_at) / RFU EBF3 (11725865_a_at) / Fold change /veh EBF3 (11725865_a_at) / RFU CAMK2N1 (11719241_x_at) / Fold change /veh CAMK2N1 (11719241_x_at) / RFU C5orf56 (11738088_a_at) / Fold change /veh C5orf56 (11738088_a_at) / RFU OLFML3 (11715873_a_at) / Fold change /veh OLFML3 (11715873_a_at) / RFU LOC100653217 /// NTM (11731650_a_at) / Fold change /veh LOC100653217 /// NTM (11731650_a_at) / RFU MAPK11 (11762145_a_at) / Fold change /veh MAPK11 (11762145_a_at) / RFU FIZ1 (11724087_x_at) / Fold change /veh FIZ1 (11724087_x_at) / RFU OASL (11726364_x_at) / Fold change /veh OASL (11726364_x_at) / RFU SOX15 (11748057_x_at) / Fold change /veh SOX15 (11748057_x_at) / RFU CD79A (11719716_a_at) / Fold change /veh CD79A (11719716_a_at) / RFU HIST1H1D (11736915_at) / Fold change /veh HIST1H1D (11736915_at) / RFU CASKIN2 (11723855_a_at) / Fold change /veh CASKIN2 (11723855_a_at) / RFU LOC730098 (11760151_x_at) / Fold change /veh LOC730098 (11760151_x_at) / RFU OR4N2 (11742367_at) / Fold change /veh OR4N2 (11742367_at) / RFU PRRT2 (11749266_a_at) / Fold change /veh PRRT2 (11749266_a_at) / RFU SNX32 (11753110_a_at) / Fold change /veh SNX32 (11753110_a_at) / RFU CDHR5 (11726645_a_at) / Fold change /veh CDHR5 (11726645_a_at) / RFU RCAN1 (11760418_a_at) / Fold change /veh RCAN1 (11760418_a_at) / RFU FAM167A (11723789_a_at) / Fold change /veh FAM167A (11723789_a_at) / RFU FAM26E (11764081_at) / Fold change /veh FAM26E (11764081_at) / RFU ISYNA1 (11749810_s_at) / Fold change /veh ISYNA1 (11749810_s_at) / RFU ACY1 (11761880_at) / Fold change /veh ACY1 (11761880_at) / RFU 11764098_at / Fold change /veh 11764098_at / RFU SAMD14 (11745864_x_at) / Fold change /veh SAMD14 (11745864_x_at) / RFU NPB (11741838_a_at) / Fold change /veh NPB (11741838_a_at) / RFU TMPRSS6 (11731388_a_at) / Fold change /veh TMPRSS6 (11731388_a_at) / RFU KRTAP10-2 (11738614_at) / Fold change /veh KRTAP10-2 (11738614_at) / RFU ARHGAP8 /// PRR5-ARHGAP8 (11727945_x_at) / Fold change /veh ARHGAP8 /// PRR5-ARHGAP8 (11727945_x_at) / RFU KRTAP5-7 /// NADSYN1 (11734609_at) / Fold change /veh KRTAP5-7 /// NADSYN1 (11734609_at) / RFU RASL12 (11751679_a_at) / Fold change /veh RASL12 (11751679_a_at) / RFU CDKN2B (11736163_a_at) / Fold change /veh CDKN2B (11736163_a_at) / RFU PRF1 (11729649_at) / Fold change /veh PRF1 (11729649_at) / RFU, ZNF638 /// ZNF638-IT1 / Fold change vs veh, ZNF638 /// ZNF638-IT1 / RFU, PANK3 / Fold change vs veh, PANK3 / RFU, SH3YL1 / Fold change vs veh, SH3YL1 / RFU, ZEB2 / Fold change vs veh, ZEB2 / RFU, NRIP1 / Fold change vs veh, NRIP1 / RFU, PTTG1IP / Fold change vs veh, PTTG1IP / RFU, CAPN2 / Fold change vs veh, CAPN2 / RFU, MED14 / Fold change vs veh, MED14 / RFU, SNORA58 / Fold change vs veh, SNORA58 / RFU, C1orf63 / Fold change vs veh, C1orf63 / RFU, LRRFIP1 / Fold change vs veh, LRRFIP1 / RFU, NDUFAF7 / Fold change vs veh, NDUFAF7 / RFU, SLC12A2 / Fold change vs veh, SLC12A2 / RFU, IBTK / Fold change vs veh, IBTK / RFU, ESF1 / Fold change vs veh, ESF1 / Fold change vs veh, TMEM50B / RFU, TAOK1 / Fold change vs veh, TAOK1 / RFU, ACBD3 / Fold change vs veh, ACBD3 / RFU, TMA16 / Fold change vs veh, TMA16 / RFU, RWDD3 / Fold change vs veh, RWDD3 / RFU, BCAT1 / Fold change vs veh, BCAT1 / RFU, EDEM3 / Fold change vs veh, EDEM3 / RFU, TMEM33 / Fold change vs veh, TMEM33 / RFU, WDR75 / Fold change vs veh, WDR75 / RFU, AHCTF1 / Fold change vs veh, AHCTF1 / RFU, TFRC / Fold change vs veh, TFRC / RFU, ZDHHC17 / Fold change vs veh, ZDHHC17 / RFU, NOM1 / Fold change vs veh, NOM1 / RFU, ARL8B / Fold change vs veh, ARL8B / RFU, ZBTB11 / Fold change vs veh, ZBTB11 / RFU, TAMM41 / Fold change vs veh, TAMM41 / RFU, KIAA1704 /// LOC100996395 / Fold change vs veh, KIAA1704 /// LOC100996395 / RFU, ING1 / Fold change vs veh, ING1 / RFU, TRMT61B / Fold change vs veh, TRMT61B / RFU, FUBP3 / Fold change vs veh, FUBP3 / RFU, TP53 / Fold change vs veh, TP53 / RFU, TNKS2 / Fold change vs veh, TNKS2 / RFU, ZFP14 / Fold change vs veh, ZFP14 / RFU, ACTR2 / Fold change vs veh, ACTR2 / RFU, PPP3R1 / Fold change vs veh, PPP3R1 / RFU, PIK3R1 / Fold change vs veh, PIK3R1 / RFU, HNRNPA1 / Fold change vs veh, HNRNPA1 / RFU, RNF170 / Fold change vs veh, RNF170 / RFU, ZNF28 / Fold change vs veh, ZNF28 / RFU, RNGTT / Fold change vs veh, RNGTT / RFU, OGT / Fold change vs veh, OGT / RFU, BRD1 / Fold change vs veh, BRD1 / RFU, MARS / Fold change vs veh, MARS / RFU, ZNF655 / Fold change vs veh, ZNF655 / RFU, FAHD1 / Fold change vs veh, FAHD1 / RFU, BDP1 / Fold change vs veh, BDP1 / RFU, LRRCC1 / Fold change vs veh, LRRCC1 / RFU, ARID1A / Fold change vs veh, ARID1A / RFU, ZNF146 / Fold change vs veh, ZNF146 / RFU, ZNF330 / Fold change vs veh, ZNF330 / RFU, GPN3 / Fold change vs veh, GPN3 / RFU, C9orf123 / Fold change vs veh, C9orf123 / RFU, N4BP2L2 / Fold change vs veh, N4BP2L2 / RFU, ARFIP1 / Fold change vs veh, ARFIP1 / RFU, FAM179B / Fold change vs veh, FAM179B / RFU, BCL10 / Fold change vs veh, BCL10 / RFU, UHRF1BP1L / Fold change vs veh, UHRF1BP1L / RFU, BET1 / Fold change vs veh, BET1 / RFU, CNOT2 / Fold change vs veh, CNOT2 / RFU, ZNF268 / Fold change vs veh, ZNF268 / Fold change vs veh, ZNF507 / RFU, DGCR2 / Fold change vs veh, DGCR2 / RFU, WDSUB1 / Fold change vs veh, WDSUB1 / Fold change vs veh, HSP90B1 /// MIR3652 / RFU, ADSS / Fold change vs veh, ADSS / RFU, GK / Fold change vs veh, GK / RFU, ZNF148 / Fold change vs veh, ZNF148 / RFU, TAF9 / Fold change vs veh, TAF9 / RFU, SLC1A5 / Fold change vs veh, SLC1A5 / RFU, SLMO2 / Fold change vs veh, SLMO2 / RFU, ABCC4 / Fold change vs veh, ABCC4 / RFU, LOC101060439 /// RAP1B / Fold change vs veh, LOC101060439 /// RAP1B / RFU, RFX7 / Fold change vs veh, RFX7 / RFU, GTPBP10 / Fold change vs veh, GTPBP10 / RFU, CNEP1R1 / Fold change vs veh, CNEP1R1 / RFU, BIVM-ERCC5 /// ERCC5 / Fold change vs veh, BIVM-ERCC5 /// ERCC5 / RFU, ILF3 / Fold change vs veh, ILF3 / RFU 11762660_at / Fold change /veh 11762660_at / RFU VCAN (11757783_s_at) / Fold change /veh VCAN (11757783_s_at) / RFU DDX43 (11728927_at) / Fold change /veh DDX43 (11728927_at) / RFU KRT8 (11758188_x_at) / Fold change /veh KRT8 (11758188_x_at) / RFU NKD1 (11759106_at) / Fold change /veh NKD1 (11759106_at) / RFU SRD5A1 (11742802_a_at) / Fold change /veh SRD5A1 (11742802_a_at) / RFU TPSAB1 /// TPSB2 (11721975_s_at) / Fold change /veh TPSAB1 /// TPSB2 (11721975_s_at) / RFU GSTM3 (11746129_a_at) / Fold change /veh GSTM3 (11746129_a_at) / RFU IL23R (11737362_x_at) / Fold change /veh IL23R (11737362_x_at) / RFU TMEM51 (11727254_a_at) / Fold change /veh TMEM51 (11727254_a_at) / RFU PIWIL2 (11732686_x_at) / Fold change /veh PIWIL2 (11732686_x_at) / RFU ORM1 (11744905_x_at) / Fold change /veh ORM1 (11744905_x_at) / RFU CCDC152 (11743942_at) / Fold change /veh CCDC152 (11743942_at) / RFU ECM1 (11717891_a_at) / Fold change /veh ECM1 (11717891_a_at) / RFU IL23R (11748794_a_at) / Fold change /veh IL23R (11748794_a_at) / RFU TNFAIP8L3 (11732012_x_at) / Fold change /veh TNFAIP8L3 (11732012_x_at) / RFU MBOAT4 (11741988_at) / Fold change /veh MBOAT4 (11741988_at) / RFU 11764193_at / Fold change /veh 11764193_at / RFU TMEM53 (11763286_at) / Fold change /veh TMEM53 (11763286_at) / RFU MAGEB2 (11727129_at) / Fold change /veh MAGEB2 (11727129_at) / RFU TMEM200A (11744735_a_at) / Fold change /veh TMEM200A (11744735_a_at) / RFU CCDC152 (11751479_a_at) / Fold change /veh CCDC152 (11751479_a_at) / RFU FAM211A (11726209_a_at) / Fold change /veh FAM211A (11726209_a_at) / RFU RGS16 (11746705_a_at) / Fold change /veh RGS16 (11746705_a_at) / RFU VCAN (11755009_s_at) / Fold change /veh VCAN (11755009_s_at) / RFU RHOB (11743442_s_at) / Fold change /veh RHOB (11743442_s_at) / RFU RGS16 (11720943_a_at) / Fold change /veh RGS16 (11720943_a_at) / RFU RGS16 (11720944_at) / Fold change /veh RGS16 (11720944_at) / RFU, VPS4B / Fold change vs veh, VPS4B / RFU, CREB1 / Fold change vs veh, CREB1 / RFU, DNAJC13 / Fold change vs veh, DNAJC13 / RFU, GNAQ / Fold change vs veh, GNAQ / RFU, CDK5R1 / Fold change vs veh, CDK5R1 / RFU, ZRANB3 / Fold change vs veh, ZRANB3 / RFU, CUL4A / Fold change vs veh, CUL4A / RFU, CCNY / Fold change vs veh, CCNY / RFU, UFL1 / Fold change vs veh, UFL1 / RFU, COG3 / Fold change vs veh, COG3 / RFU, DIAPH2 / Fold change vs veh, DIAPH2 / RFU, SKA2 / Fold change vs veh, SKA2 / RFU, AFF3 / Fold change vs veh, AFF3 / RFU, LMF1 / Fold change vs veh, LMF1 / RFU, IPO11 / Fold change vs veh, IPO11 / RFU, DFFB / Fold change vs veh, DFFB / RFU, FOXP1 / Fold change vs veh, FOXP1 / RFU, CARD8 / Fold change vs veh, CARD8 / RFU, STRN3 / Fold change vs veh, STRN3 / RFU, ADK / Fold change vs veh, ADK / RFU, RASSF2 / Fold change vs veh, RASSF2 / RFU, WIPF1 / Fold change vs veh, WIPF1 / RFU, LARP1B / Fold change vs veh, LARP1B / RFU, RASA1 / Fold change vs veh, RASA1 / RFU, RB1 / Fold change vs veh, RB1 / RFU, PPFIA1 / Fold change vs veh, PPFIA1 / RFU, MAT2A / Fold change vs veh, MAT2A / RFU, CCT5 / Fold change vs veh, CCT5 / RFU, WDR92 / Fold change vs veh, WDR92 / RFU, CUX1 / Fold change vs veh, CUX1 / RFU, TTC7A / Fold change vs veh, TTC7A / RFU, TMEM135 / Fold change vs veh, TMEM135 / RFU, DEPTOR / Fold change vs veh, DEPTOR / RFU, CPM / Fold change vs veh, CPM / RFU, DNAJB6 / Fold change vs veh, DNAJB6 / RFU, CACNA2D3 / Fold change vs veh, CACNA2D3 / RFU, DTX4 / Fold change vs veh, DTX4 / RFU, TFCP2 / Fold change vs veh, TFCP2 / RFU, GMCL1 /// GMCL1P1 / Fold change vs veh, GMCL1 /// GMCL1P1 / RFU, AEBP2 / Fold change vs veh, AEBP2 / RFU, SNHG1 /// SNORD22 /// SNORD25 /// SNORD26 /// SNORD27 /// SNORD28 /// SNORD29 /// SNORD31 / Fold change vs veh, SNHG1 /// SNORD22 /// SNORD25 /// SNORD26 /// SNORD27 /// SNORD28 /// SNORD29 /// SNORD31 / Fold change (Aza/veh), C12orf56 (ProbeSet 11735607_a_at) / Fold change (ACY-1035/veh), C12orf56 (ProbeSet 11735607_a_at) / Fold change (Aza/veh), FGFR1OP (ProbeSet 11751329_s_at) / Fold change (ACY-1035/veh), FGFR1OP (ProbeSet 11751329_s_at) / Fold change (Aza/veh), VPS36 (ProbeSet 11739960_a_at) / Fold change (ACY-1035/veh), VPS36 (ProbeSet 11739960_a_at) / RFU SYPL1 (11715823_x_at) / Fold change /veh SYPL1 (11715823_x_at) / RFU IGFBP7 (11715501_s_at) / Fold change /veh IGFBP7 (11715501_s_at) / RFU REEP3 (11722064_at) / Fold change /veh REEP3 (11722064_at) / RFU IGLL1 (11728026_x_at) / Fold change /veh IGLL1 (11728026_x_at): dose or concentration left out as unconfirmed
Conditions: ProbeSet 11743510_at; LIST D

Nc1ccc(-c2cccs2)cc1NC(=O)c1ccc2c(c1)cc(C1CC1)n2CCN1CCOCC1 [ACY-1035]
RFU, UFL1: 325.04 RFU
